Here are results for two molecules from article PMC5512577, “PDE6δ-mediated sorting of INPP5E into the cilium is determined by cargo-carrier affinity” (Nature Communications, 2016).

Assay [1] has as its system PDE6δ. In words: Stopped-flow fluorescence polarization, dissociation of peptides from PDE6δ with and without Arl2/Arl3·GppNHp. Type of assay: binding. As to conditions: 1 μM PDE6δ, 0.2 μM labelled peptide, 100-fold excess unlabelled peptide, 20 °C, ± s.d., n=4. An excerpt:
Towards an explanation for the possible sorting mechanism that leaves some PDE6δ-cargo in the cell body but allows others to be enriched in the cilia we turned to the release activities of Arl2 and Arl3. […] While Arl2 is a non-ciliary protein, Arl3 localizes along the length of the cilium. Using fluorescence polarization, we measured the release of INPP5E and Rheb peptides from PDE6δ by the addition of Arl2 or Arl3 bound to the non-hydrolysable GTP analogue GppNHp. […] To compare the cargo release kinetics of Arl2·GppNHp and Arl3·GppNHp, we measured the dissociation rate constants of INPP5E and Rheb peptides from PDE6δ in the presence and absence of Arl3·GppNHp or Arl2·GppNHp, by adding a large excess of unlabelled peptide to silence the back reaction. […] The presence of Arl3·GppNHp or Arl2·GppNHp has a similar acceleration effect on the dissociation rate of Rheb peptide from PDE6δ (koff=27.2±0.7 and 15.3±0.3 s^−1, respectively, ±indicates s.d., n=4) (Fig. 2c,d).
Figure 2 INPP5E release from PDE6δ by Arl2·GppNHp and Arl3·GppNHp. (a) Fluorescence polarization measurements of 0.5 μM FITC-labelled Rheb peptide followed by addition of 0.5 μM PDE6δ and the addition of 5 μM Arl2·GppNHp or Arl3·GppNHp (arrow). (b) Fluorescence polarization measurements of 0.2 μM TAMRA-labelled INPP5E peptide followed by the addition of 0.2 μM PDE6δ (arrow) and 5 μM Arl2·GppNHp or Arl3·GppNHp (arrow). (c–f) Stopped-flow fluorescence polarization kinetic experiment where complexes of 1 μM PDE6δ with either 0.2 μM of FITC-labelled Rheb peptide (c,d) or TAMRA-labelled farnesylated INPP5E peptide (e,f) were mixed with 100-fold excess of unlabelled peptide and 10 μM of Arl2 (c,e) or Arl3 (d,f) as indicated.
(§1) All fluorescence polarization measurements were performed at 20 °C in a buffer containing 25 mM Tris-HCl (pH 7.5), 50 mM NaCl and 3 mM DTE. […]
A general note: Fluorescence polarisation rises when a labelled molecule tumbles more slowly, as on binding a larger partner.

Assay [2] deals with PDE6δ/farnesylated peptide complex. Description: Fluorescence polarization release of farnesylated peptide from PDE6δ by Arl proteins. Format: biochemical.
Description: Towards an explanation for the possible sorting mechanism that leaves some PDE6δ-cargo in the cell body but allows others to be enriched in the cilia we turned to the release activities of Arl2 and Arl3. […] While Arl2 is a non-ciliary protein, Arl3 localizes along the length of the cilium. Using fluorescence polarization, we measured the release of INPP5E and Rheb peptides from PDE6δ by the addition of Arl2 or Arl3 bound to the non-hydrolysable GTP analogue GppNHp. […] To compare the cargo release kinetics of Arl2·GppNHp and Arl3·GppNHp, we measured the dissociation rate constants of INPP5E and Rheb peptides from PDE6δ in the presence and absence of Arl3·GppNHp or Arl2·GppNHp, by adding a large excess of unlabelled peptide to silence the back reaction. […]
Figure 2 INPP5E release from PDE6δ by Arl2·GppNHp and Arl3·GppNHp. (a) Fluorescence polarization measurements of 0.5 μM FITC-labelled Rheb peptide followed by addition of 0.5 μM PDE6δ and the addition of 5 μM Arl2·GppNHp or Arl3·GppNHp (arrow). (b) Fluorescence polarization measurements of 0.2 μM TAMRA-labelled INPP5E peptide followed by the addition of 0.2 μM PDE6δ (arrow) and 5 μM Arl2·GppNHp or Arl3·GppNHp (arrow). […]
as §1
Arl3•GTP. Fluorescence polarization measurements of 0.2 µM TAMRA-labeled […]

Assay [3] concerns PDE6δ. Description: Stopped-flow fluorescence polarization kinetics of mantGppNHp-loaded Arl proteins with PDE6δ. As to conditions: for association rate constant kon with PDE6δ: 0.2 μM mantGppNHp-loaded Arl protein, increasing PDE6δ; for association rate constant kon with PDE6δ / dissociation rate constant koff from PDE6δ: 20 °C; for association rate constant kon with PDE6δ / dissociation rate constant koff from PDE6δ / Kd: n=4; for dissociation rate constant koff from PDE6δ: 2 μM PDE6δ with 0.2 μM mantGppNHp-loaded Arl protein, 200-fold excess unlabelled Arl protein; for Kd: calculated from kinetic constants, ± s.d., read-out: equilibrium dissociation constant Kd with PDE6δ (Kd=koff/kon). Format: binding. How it is done: Previously we have shown that the N-terminal helix of Arl3 is important to release myristoylated cargo from a complex with the shuttle factor UNC119 (ref. [30]). To find out whether the N-terminus of Arl3 and/or Arl2 has a similar if any role in the interaction with PDE6δ, fluorescence polarization measurements using full-length Arl3 (Arl3^fl) or an N-terminal truncated form (Arl3^ΔN) were performed. […] To investigate the role of the N-terminal helix of Arl3 in the release mechanism, we measured association and dissociation rate constants to determine the affinity of PDE6δ towards Arl2 and Arl3 in both full-length and N-terminal truncated forms. Association rate constants between the four proteins Arl3^fl, Arl3^ΔN, Arl2^fl and Arl2^ΔN are rather similar although association is almost twice as fast for full-length Arl3 as compared with Arl2 (Fig. 3a,b). […] The Kd values for Arl2^fl and Arl3^fl differ from previously determined values, likely because of the different techniques used.
Figure 3 Contribution of the N-terminal helix of Arl3 to the binding affinity with PDE6δ. (a) Stopped-flow fluorescence polarization kinetic measurements of the association of 0.2 μM mantGppNHp loaded Arl proteins with increasing concentrations of PDE6δ. The observed pseudo-first order rate constants (kobs) are plotted against PDE6δ concentration. (b) Bar charts of the association rate constants (kon) determined in a. (c,d) Stopped-flow fluorescence polarization kinetic experiments where complexes of 2 μM PDE6δ with 0.2 μM of full-length (Arl^fl) or N-terminally deleted (Arl^ΔN) mantGppNHp loaded Arl proteins as indicated were mixed with 200-fold excess of unlabelled Arl proteins to determine koff. (e) Bar charts of the dissociation rate constants (koff) from experiments in c,d. (f) Bar charts of the equilibrium dissociation constants (Kd) of complexes between PDE6δ and Arl proteins as determined from the kinetic constants in c,e. Error bars indicate s.d., n=4. TEXT PRINTED IN THE PICTURE: (b) Arl3^fl: kon (μM^-1s^-1): 5.97 | (b) Arl3^ΔN: kon (μM^-1s^-1): 4.25 | (b) Arl2^fl: kon (μM^-1s^-1): 2.25 | (b) Arl2^ΔN: kon (μM^-1s^-1): 3.09 | (e) Arl3^fl: koff (s^-1): 0.035 | (e) Arl3^ΔN: koff (s^-1): 0.92 | (e) Arl2^fl: koff (s^-1): 0.33 | (e) Arl2^ΔN: koff (s^-1): 0.98 | (f) Arl3^fl: kd (nM): 5.84 | (f) Arl3^ΔN: kd (nM): 217 | (f) Arl2^fl: kd (nM): 149 | (f) Arl2^ΔN: kd (nM): 319
All fluorescence polarization measurements were performed at 20 °C in a buffer containing 25 mM Tris-HCl (pH 7.5), 50 mM NaCl and 3 mM DTE. For the titration measurement, data were recorded with Fluoromax-4 spectrophotometer (HORIBA Jobin Yvon, Munich, Germany) with excitation and emission wavelengths at 530 and 580 nm for TAMRA-labelled INPP5E peptide and at 495 and 520 nm for fluorescein-labelled Rheb peptide. The kinetic measurements were monitored by a stopped-flow apparatus (Applied Photophysics) in the polarization mode using an excitation wavelength of 366 nm and filter with 420 nm cutoff for mantGppNHp bound Arl protein, excitation wavelength of 495 nm and filter with 520 nm cutoff for fluorescein-labelled Rheb peptide and excitation wavelength of 530 nm and filter with 570 nm cutoff for TAMRA-labelled INPP5E peptide. Data analysis was done with GraFit 5.0 program (Erithracus Software). Concentrations used for each experiment are indicated in the corresponding figure legend.

Where two headings read alike, the source gives them in different places. Peptide text beside a SMILES is read from it. * marks the point of attachment. FITC = O=C1OC2(c3ccc(O)cc3Oc3cc(O)ccc32)c2ccc(NC(=S)*)cc21; Farnesyl = CC(C)=CCC/C(C)=C/CC/C(C)=C/C*

Take `COC(=O)[C@H](CSC/C=C(\C)CC/C=C(\C)CCC=C(C)C)NC(=O)[C@H](CO)NC(=O)[C@H](CO)NC(=O)[C@H](CCCCN)NC(=O)CNC(=O)[C@H](CCC(N)=O)NC(=O)[C@H](CO)NC(=S)Nc1ccc2c(c1)C(=O)OC21c2ccc(O)cc2Oc2cc(O)ccc21` [Rheb peptide] ({FITC}-SQGKSSC(Farnesyl)-OMe; N-terminus and C-terminus assumed): the “koff from PDE6δ in presence of Arl2·GppNHp” value in the assay with PDE6δ [1] (10 μM Arl2·GppNHp) turned out to be 15.3 ± 0.3 s⁻¹. In addition, the “koff from PDE6δ in presence of Arl3·GppNHp” value in the assay with PDE6δ [1] (10 μM Arl3·GppNHp) is 27.2 ± 0.7 s⁻¹. Further, in the assay with PDE6δ [1] (absence of Arl2/3), the “intrinsic dissociation rate koff from PDE6δ” value is 0.95 ± 0.004 s⁻¹. Also, the “release of peptide from PDE6δ by Arl2·GppNHp or Arl3·GppNHp” value in assay [2] (0.5 μM FITC-Rheb peptide + 0.5 μM PDE6δ or 0.2 μM TAMRA-INPP5E peptide + 0.2 μM PDE6δ, 5 μM Arl·GppNHp) is “can be released by both Arl2·GppNHp and Arl3·GppNHp”.

Regarding “Arl3^fl: full-length Arl3, GppNHp or mantGppNHp loaded”, in the assay on PDE6δ [3], the “association rate constant kon with PDE6δ” value is 5.97e+06 M⁻¹ s⁻¹, the “dissociation rate constant koff from PDE6δ” value worked out at 0.035 s⁻¹ and the Kd was 5.84 nM. In the assay with PDE6δ [3] (listed as Arl3^ΔN), the “association rate constant kon with PDE6δ” value worked out at 4.25e+06 M⁻¹ s⁻¹, the “dissociation rate constant koff from PDE6δ” value was 0.92 s⁻¹ and the Kd is 217 ± 4.3 nM. The “increase of affinity to PDE6δ by the N-terminal helix” value in the assay with PDE6δ [3] (Arl3 full-length versus ΔN) amounted to 37 fold. Further, the “release of INPP5E peptide from PDE6δ by Arl3 form” value in assay [2] (0.2 μM TAMRA-labelled INPP5E peptide, 0.2 μM PDE6δ, 5 μM Arl3fl or Arl3ΔN) is listed as “unable to release the INPP5E peptide”.
